Here are results for 11 molecules from patent US4103028A, “Complement inhibitors” (American Cyanamid Company, priority 1977, dated 1978).

Counter-ions that a name gives are not always drawn.

One assay addresses T1, C1 (Homo sapiens, UniProt P09871).
T1 sequence (P09871 16-437 limits assumed): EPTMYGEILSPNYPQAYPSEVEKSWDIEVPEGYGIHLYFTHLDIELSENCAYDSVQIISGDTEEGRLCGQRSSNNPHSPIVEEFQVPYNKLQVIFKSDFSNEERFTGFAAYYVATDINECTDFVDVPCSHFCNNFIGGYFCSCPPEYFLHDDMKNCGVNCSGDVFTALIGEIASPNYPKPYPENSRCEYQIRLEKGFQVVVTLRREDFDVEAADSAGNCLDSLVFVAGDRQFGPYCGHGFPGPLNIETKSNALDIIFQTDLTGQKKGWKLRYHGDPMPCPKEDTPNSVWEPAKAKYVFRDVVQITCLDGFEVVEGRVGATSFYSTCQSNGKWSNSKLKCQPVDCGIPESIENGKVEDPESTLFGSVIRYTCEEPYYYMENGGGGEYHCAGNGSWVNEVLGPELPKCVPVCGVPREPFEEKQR
T1 sequence (P09871 438-688 limits assumed): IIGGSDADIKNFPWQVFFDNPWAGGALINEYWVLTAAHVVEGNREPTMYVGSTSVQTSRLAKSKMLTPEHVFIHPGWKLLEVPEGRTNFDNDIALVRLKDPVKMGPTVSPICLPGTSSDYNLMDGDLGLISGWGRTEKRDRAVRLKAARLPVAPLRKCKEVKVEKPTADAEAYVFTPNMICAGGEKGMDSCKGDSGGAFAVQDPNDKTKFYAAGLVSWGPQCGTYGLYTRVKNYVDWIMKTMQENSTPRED
In words: Test, Code 026 (C1 inhibitor), serial dilution assay. The assay is classed as biochemical. To be noted: In vitro; well number of a two-fold serial dilution assay, higher well number indicates higher activity; NEG = negative. The text has this:
(§1) This test measures the ability of activated […] in the presence of C4 and appropriate dilutions of the test compound. An active inhibitor protects C2 from C1 and C4; (ii) Test, Code 035 (C3-C9 inhibitor) -- This test determines the ability of the late components of human complement (C3-C9) to lyse EAC 142 in the presence of appropriate dilutions of the test compound. An active inhibitor protects EAC 142 from lysis by human C3-C9; (iii) Test, Code 036 (C-Shunt inhibitor) -- In this test human erythrocytes rendered fragile are lysed in autologous serum via the shunt pathway activated by cobra venom factor in the presence of appropriate dilutions of the test compound. Inhibition of the shunt pathway results in failure of lysis; (iv) Forssman Vasculitis Test -- Here, the well known complement dependent lesion, Forssman vascultitis, is produced in guinea pigs by intradermal injection of rabbit anti-Forssman antiserum. The lesion is measured in terms of diameter, edema and hemorrhage and the extent to which a combined index of these is inhibited by prior intraperitoneal injection of the test compound at 200 mg/kg is then reported, unless otherwise stated; (v) Forssman Shock Test -- Lethal shock is produced in guinea pigs by an i.v. injection of anti-Forssman antiserum and the harmonic mean death time of treated guinea pigs is compared with that of simultaneous controls; (vi) Complement Level Reduction Test -- In this test, the above dosed quinea pigs, or others, are bled for serum and the complement level is determined in undiluted serum by the capillary tube method of U.S. Pat. No. 3,876,376 and compared to undosed control guinea pigs; and (vii) Cap 50 Test -- Here, appropriate amounts of the test compound are added to a pool of guinea pig serum in vitro, after which the undiluted serum capillary tube assay referred to above is run. The concentration of compound inhibiting 50% is reported.

The subject of assay [1] is late components of human complement (C3-C9). In words: Test, Code 035 (C3-C9 inhibitor), lysis of EAC 142. In kind it is biochemical. To be noted: In vitro; well number of a two-fold serial dilution assay, higher well number indicates higher activity; NEG = negative.
Source text: as §1

The test system of another assay is shunt pathway. Kind of assay: Test, Code 036 (C-Shunt inhibitor), lysis of fragile human erythrocytes in autologous serum, cobra venom factor. In kind it is biochemical. The note with it: In vitro; well number of a two-fold serial dilution assay, higher well number indicates higher activity; NEG = negative.
Source text: as §1

In assay [2] the test system is Forssman vasculitis in guinea pigs. Kind of assay: Forssman Vasculitis Test. Also noted: species or system guinea pig. The note with it: In vivo, inhibition of combined index of lesion diameter, edema and hemorrhage, prior intraperitoneal injection at 200 mg/kg unless otherwise stated.
Source text: as §1

Assay [3] relates to complement level in undiluted serum. Kind of assay: Complement Level Reduction Test. The arrangement: species or system guinea pig. To be noted: In vivo, dosed guinea pigs bled for serum; capillary tube method, compared to undosed control guinea pigs.
Source text: as §1

Take `O=C(Nc1cccc(C(=O)Nc2cc3c(O)cc(S(=O)(=O)O)cc3cc2S(=O)(=O)O)c1)Nc1cccc(C(=O)Nc2cc3c(O)cc(S(=O)(=O)O)cc3cc2S(=O)(=O)O)c1` [3,3'-[Ureylenebis (m-phenylenecarbonylimino)]bis[5-hydroxy-2,7-naphthalenedisulfonic acid]tetrasodium salt]: at C1, the “026 (activity in wells)” value was 5. For the same molecule, the “035 (activity in wells)” value in assay [1] was 2. For the same molecule, the “036 (activity in wells)” value with shunt pathway is recorded as 2. Besides, the Forssman in assay [2] is 35. In assay [3], the “% Reduction Complement” value was -31%.

For `Cc1ccc(C(=O)Nc2cc(S(=O)(=O)O)cc3cc(S(=O)(=O)O)cc(O)c23)cc1N` [4-(3-Amino-p-toluamido)-5-hydroxy-2,7-naphthalenedisulfonic acid, disodium salt], the “026 (activity in wells)” value on C1 stood at 5. In addition, the “035 (activity in wells)” value in assay [1] is given as “NEG”. The “036 (activity in wells)” value with shunt pathway was “NEG”.

For `Cc1cc(C(=O)Nc2cc(S(=O)(=O)O)cc3cc(S(=O)(=O)O)cc(O)c23)ccc1N` [4-(4-Amino-m-toluamido)-5-hydroxy-2,7-naphthalenedisulfonic acid, disodium salt], at C1, the “026 (activity in wells)” value is listed as 5. For the same molecule, the “035 (activity in wells)” value in assay [1] was “NEG”. For the same molecule, the “036 (activity in wells)” value with shunt pathway is recorded as “NEG”. In addition, the Forssman in assay [2] stood at 17. Also, the “% Reduction Complement” value in assay [3] was “+12%”.

Regarding `Cc1ccc(N)cc1C(=O)Nc1cc(S(=O)(=O)O)cc2cc(S(=O)(=O)O)cc(O)c12` [4-(5-Amino-o-toluamido)-5-hydroxy-2,7-naphthalenedisulfonic acid, disodium salt], the “026 (activity in wells)” value on C1 is listed as 2. For the same molecule, in assay [1], the “035 (activity in wells)” value is listed as “NEG”. The “036 (activity in wells)” value in the assay on shunt pathway is recorded as “NEG”.

Regarding `Cc1ccc(C(=O)Nc2cc(S(=O)(=O)O)cc3cc(S(=O)(=O)O)cc(O)c23)cc1[N+](=O)[O-]` [4-Hydroxy-5-(3-nitro-p-toluamido)-2,7-naphthalenedisulfonic acid, disodium salt], the “026 (activity in wells)” value on C1 is given as 3. Moreover, the “035 (activity in wells)” value in assay [1] is recorded as “NEG”. In addition, the “036 (activity in wells)” value in the assay with shunt pathway is “NEG”.

Turning to `Cc1cc(C(=O)Nc2cc(S(=O)(=O)O)cc3cc(S(=O)(=O)O)cc(O)c23)ccc1[N+](=O)[O-]` [4-Hydroxy-5-(4-nitro-3-toluamido)-2,7-naphthalenedisulfonic acid, disodium salt], the “026 (activity in wells)” value on C1 is 2. Besides, the “035 (activity in wells)” value in assay [1] is listed as “NEG”. In addition, the “036 (activity in wells)” value with shunt pathway is “NEG”. In addition, the Forssman in assay [2] stood at 48. In addition, the “% Reduction Complement” value in assay [3] is recorded as -20%.

`Cc1ccc([N+](=O)[O-])cc1C(=O)Nc1cc(S(=O)(=O)O)cc2cc(S(=O)(=O)O)cc(O)c12` [4-Hydroxy-5-(5-nitro-o-toluamido)-2,7-naphthalenedisulfonic acid, disodium salt]: the “026 (activity in wells)” value at C1 is recorded as 2. Also, the “035 (activity in wells)” value in assay [1] is on record as “NEG”. In addition, in the assay with shunt pathway, the “036 (activity in wells)” value is “NEG”. The Forssman in assay [2] is on record as 10. In addition, the “% Reduction Complement” value in assay [3] is reported as -17%.

`Cc1ccc(NC(=O)Nc2cccc(C(=O)Nc3cc(S(=O)(=O)O)cc4cc(S(=O)(=O)O)cc(O)c34)c2)cc1[N+](=O)[O-]` [4-Hydroxy-5-m-[3-(3-nitro-p-tolyl)ureido]benzamido-2,7-naphthalenedisulfonic acid, disodium salt]: the “026 (activity in wells)” value on C1 is given as “NEG”. In addition, the “035 (activity in wells)” value in assay [1] is “NEG”. Besides, the “036 (activity in wells)” value in the assay on shunt pathway is “NEG”. Moreover, the Forssman in assay [2] is given as 15. The “% Reduction Complement” value in assay [3] is reported as “+46%”.

With `O=C(Nc1cccc(C(=O)Nc2cc(S(=O)(=O)O)cc3cc(S(=O)(=O)O)cc(O)c23)c1)Nc1cccc(C(F)(F)F)c1` [4-Hydroxy-5-m-[3-(α,α,α-trifluoro-m-tolyl)ureido]benzamido-2,7-naphthalenedisulfonic acid, disodium salt], the “026 (activity in wells)” value at C1 amounted to 1. Besides, the “035 (activity in wells)” value in assay [1] was “NEG”. Besides, the “036 (activity in wells)” value in the assay on shunt pathway is reported as “NEG”. In assay [2], the Forssman is listed as 5. Also, in assay [3], the “% Reduction Complement” value is -6%.

Take `O=C(Nc1ccc(S(=O)(=O)F)cc1)Nc1cccc(C(=O)Nc2cc(S(=O)(=O)[O-])cc3cc(S(=O)(=O)[O-])cc(O)c23)c1.[Na+].[Na+]` [4-{m-{3-[p-(Fluorosulfonyl)phenyl]ureido}benzamido}-5-hydroxy-2,7-naphthalenedisulfonic acid, disodium salt]: the “026 (activity in wells)” value on C1 is 4. In addition, the “035 (activity in wells)” value in assay [1] is on record as “NEG”. In addition, in the assay with shunt pathway, the “036 (activity in wells)” value is “NEG”.

As for `O=C(Nc1cccc(C(=O)Nc2cc(S(=O)(=O)[O-])cc3cc(S(=O)(=O)[O-])cc(O)c23)c1)Nc1cccc(C(=O)Nc2cc(S(=O)(=O)[O-])cc3cc(S(=O)(=O)[O-])cc(O)c23)c1.[Na+].[Na+].[Na+].[Na+]` [5,5'-[Ureylenebis(m-phenylenecarbonylimino)]bis[4-hydroxy-2,7-naphthalenedisulfonic acid] tetrasodium salt], the “026 (activity in wells)” value on C1 is 6. Further, in assay [1], the “035 (activity in wells)” value turned out to be 1. Further, the “036 (activity in wells)” value in the assay with shunt pathway was determined as 2.
